Patent US12180193B2, “Accelerating fibrosarcoma protein degrading compounds and associated methods of use” (Arvinas Operations, Inc., priority 2020, dated 2024)

Key:
BRAF V600E = molecular target: T1, BRAF V600E (Homo sapiens, UniProt P15056, V600E); test: Cellular assay of target protein degradation, T-Rex 293 cells stably transfected with HA-BRAF_V600E (HA immunofluorescence, high content imaging); format: cell-based; conditions: T-Rex 293 HA-BRAF V600E; for DC50: half maximal degradation, read-out: BRaf V600E DC50; for Dmax: maximum degradation observed
T1 construct: expressed in transfected cells
Procedure: Protocol for a cellular assay of target protein degradation (T-Rex 293 cells). T-Rex 293 cells were purchased from Invitrogen (#R71007), and stably transfected with a pcDNA4/TO_HA-BRAF_V600E construct, using 400 ug Zeocin for selection. V600e cells are plated in Dulbecco's Modified Eagle Medium (DMEM; Gibco #11965118) containing 10% fetal bovine serum (FBS; Gibco #16000044) and 1 ng/mL doxycycline (Selleckchem #4163) at a density of 5,000 cells/well in 50 μl on poly-D-lysine (PDL) coated, black clear bottom 96-well plates (Corning #354640) and incubated for 24 hours at 37° C. with 5% C02. The following day 50 ul of tested compound was added at 2x concentration in DMEM with a final concentration ranging from 1 μM to 0.1 nM in 0.1% dimethylsulfoxide (DMSO), and incubated for 24 hours at 37° C. with 5% CO2. At the end of the experimental treatment, the media was flicked off and cells washed once with phosphate-buffered saline (PBS)++ (PBS with CaCl and MgCl) and gently replacing with 200 μl PBS++ per well. The PBS++ was removed and 50 uL 4% paraformaldehyde (PFA; EMS #15710) in PBS++ was added, and incubate at room temperature for 15 minutes. Cells were washed once with PBS++ and 50 uL 0.1% Triton X-100 (Fisher #BP151-500) in PBS++ was added. Plate was incubate for 5 minutes at room temperature. Cells were was once with PBS++. Cells were blocked with 100 uL Licor blocking buffer (Licor #927-50000) for 1 hour at room temperature. Next, 50 uL of HA antibody (CST #3724) at 1:1000 in Licor blocking buffer was added, and the plate incubate overnight at 4° C. The plates were parafilmed to prevent evaporation. Plate was washed three times with 200 uL PBS++. Fifty microliters of HCS secondary antibody solution [1:1000 Hoechst (Invitrogen #H3570), 1:1000 phalloidin (Invitrogen #A22287) and 1:5000 Alexa fluor (Invitrogen #A11008)] was added and incubated for 1 hour. Plate was wash three times with 200 uL PBS++, and imaged on a high content reader (ImageXpress Micro XLS, Molecular Devices).
(§1) The concentration of exemplary compound that leads to half maximal degradation (DC50) as well as the maximum degradation observed (Dmax, conventionally expressed as a percentage of control), which are below in Table 2 for the exemplary compounds of Table 1.

BRAF G466V = molecular target: T2, BRAF G466V (Homo sapiens, UniProt P15056, G466V); test: Cellular assay of target protein degradation, T-Rex 293 cells stably transfected with HA-BRAF G466V (HA immunofluorescence, high content imaging); format: cell-based; conditions: T-Rex 293 HA-BRAF G466V; for DC50: half maximal degradation, read-out: BRaf G466V DC50; for Dmax: maximum degradation observed
T2 construct: expressed in transfected cells
Procedure: Protocol for a cellular assay of target protein degradation (T-Rex 293 cells). T-Rex 293 cells were purchased from Invitrogen (#R71007), and stably transfected with a pcDNA4/TO_HA-BRAF G466V construct, using 400 ug Zeocin for selection. G466V cells are plated in Dulbecco's Modified Eagle Medium (DMEM; Gibco #11965118) containing 10% fetal bovine serum (FBS; Gibco #16000044) and 0.75 ng/mL doxycycline (Selleckchem #4163) at a density of 5,000 cells/well in 50 μl on poly-D-lysine (PDL) coated, black clear bottom 96-well plates (Corning #354640) and incubated for 24 hours at 37° C. with 5% CO2. The following day 50 ul of tested compound was added at 2x concentration in DMEM with a final concentration ranging from 30 nM to 3 pM in 0.1% dimethylsulfoxide (DMSO), and incubated for 24 hours at 37° C. with 5% CO2. At the end of the experimental treatment, the media was flicked off and cells washed once with phosphate-buffered saline (PBS)++ (PBS with CaCl and MgCl) and gently replacing with 200 μl PBS++ per well. The PBS++ was removed and 50 uL 4% paraformaldehyde (PFA; EMS #15710) in PBS++ was added, and incubate at room temperature for 15 minutes. Cells were washed once with PBS++ and 50 uL 0.1% Triton X-100 (Fisher #BP151-500) in PBS++ was added. Plate was incubate for 5 minutes at room temperature. Cells were was once with PBS++. Cells were blocked with 100 uL Licor blocking buffer (Licor #927-50000) for 1 hour at room temperature. Next, 50 uL of HA antibody (CST #3724) at 1:1000 in Licor blocking buffer was added, and the plate incubate overnight at 4° C. The plates were parafilmed to prevent evaporation. Plate was washed three times with 200 uL PBS++. Fifty microliters of HCS secondary antibody solution [1:1000 Hoechst (Invitrogen #H3570), 1:1000 phalloidin (Invitrogen #A22287) and 1:5000 Alexa fluor (Invitrogen #A11008)] was added and incubated for 1 hour. Plate was wash three times with 200 uL PBS++, and imaged on a high content reader (ImageXpress Micro XLS, Molecular Devices).
as §1

T1 sequence (P15056 whole entry V600E): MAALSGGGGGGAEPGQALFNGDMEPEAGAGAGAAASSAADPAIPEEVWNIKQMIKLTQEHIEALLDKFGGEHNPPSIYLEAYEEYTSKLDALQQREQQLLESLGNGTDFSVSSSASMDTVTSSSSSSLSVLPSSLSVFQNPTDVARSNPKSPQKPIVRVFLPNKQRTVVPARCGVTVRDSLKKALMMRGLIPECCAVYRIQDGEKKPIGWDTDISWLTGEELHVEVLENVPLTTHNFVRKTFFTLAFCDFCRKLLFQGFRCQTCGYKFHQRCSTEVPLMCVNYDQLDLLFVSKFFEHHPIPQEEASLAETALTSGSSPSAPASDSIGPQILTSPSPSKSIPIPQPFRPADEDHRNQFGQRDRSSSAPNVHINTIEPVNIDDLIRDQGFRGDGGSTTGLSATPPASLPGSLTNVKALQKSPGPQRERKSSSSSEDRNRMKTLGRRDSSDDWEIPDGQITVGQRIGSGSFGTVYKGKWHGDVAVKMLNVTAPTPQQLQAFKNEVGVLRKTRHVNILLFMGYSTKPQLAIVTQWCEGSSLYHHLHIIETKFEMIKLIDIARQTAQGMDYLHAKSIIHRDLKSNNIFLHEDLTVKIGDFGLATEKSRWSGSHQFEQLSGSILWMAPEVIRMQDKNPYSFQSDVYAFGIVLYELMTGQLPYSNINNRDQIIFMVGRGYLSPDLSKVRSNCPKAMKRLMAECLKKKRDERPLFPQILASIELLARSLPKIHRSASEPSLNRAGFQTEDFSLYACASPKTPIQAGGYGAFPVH
T2 sequence (P15056 whole entry G466V): as the sequence (P15056 whole entry V600E) above, with G466V, E600V counted along it

| Structure (SMILES) | DC50 (BRAF V600E) [nM] | Dmax (BRAF V600E) [%] | DC50 (BRAF G466V) [nM] | Dmax (BRAF G466V) [%] |
| --- | --- | --- | --- | --- |
| CC1(N2Cc3cc(C4CCN(CC5CCN(c6ccc(-c7cnc8[nH]cc(C(=O)c9c(F)ccc(NS(=O)(=O)N%10CC[C@@H](F)C%10)c9F)c8c7)cc6)CC5)CC4)ccc3C2=O)CCC(=O)NC1=O (stereo partly drawn) [Compound 183, (3R)-N-[2,4-difluoro-3-(5-{4-[4-({4-[2-(3-methyl-2,6-dioxopiperidin-3-yl)-1-oxo-2,3-dihydro-1H-isoindol-5-yl]piperidin-1-yl}methyl)piperidin-1-yl]phenyl}-1H-pyrrolo[2,3-b]pyridine-3-carbonyl)phenyl]-3-fluoropyrrolidine-1-sulfonamide] | 50 to 500 | < 35 | > 30 | – |
| COc1cc(CN2CCN(c3ccc(-c4cnc5[nH]cc(C(=O)c6c(F)ccc(NS(=O)(=O)N7CC[C@@H](F)C7)c6F)c5c4)cc3)CC2)cc2c1C(=O)N(C1CCC(=O)NC1=O)C2 (stereo partly drawn) [Compound 102, (3R)-N-(3-{5-[4-(4-{[2-(2,6-dioxopiperidin-3-yl)-7-methoxy-1-oxo-2,3-dihydro-1H-isoindol-5-yl]methyl}piperazin-1-yl)phenyl]-1H-pyrrolo[2,3-b]pyridine-3-carbonyl}-2,4-difluorophenyl)-3-fluoropyrrolidine-1-sulfonamide] | > 500 | > 70 | 1 to 10 | 35 to 70 |
| CCCS(=O)(=O)Nc1ccc(F)c(C(=O)c2c[nH]c3ncc(-c4ccc(N5CCC(CN6CC7(C6)CN(c6ccc8c(c6)CN([C@H]6CCC(=O)NC6=O)C8=O)C7)CC5)cc4)cc23)c1F [Compound 228, N-{3-[5-(4-{4-[(6-{2-[(3S)-2,6-dioxopiperidin-3-yl]-1-oxo-2,3-dihydro-1H-isoindol-5-yl}-2,6-diazaspiro[3.3]heptan-2-yl)methyl]piperidin-1-yl}phenyl)-1H-pyrrolo [2,3-b]pyridine-3-carbonyl]-2,4-difluorophenyl} propane-1-sulfonamide] | 5 to 50 | 35 to 70 | < 1 | > 70 |
| O=C1CC[C@H](NC(=O)c2ccc(N3CC4(CN(CC5CCN(c6ccc(-c7cnc8[nH]cc(C(=O)c9c(F)ccc(NS(=O)(=O)N%10CC[C@@H](F)C%10)c9F)c8c7)cc6)CC5)C4)C3)cc2F)C(=O)N1 [Compound 31, 4-(6-{[1-(4-{3-[2,6-difluoro-3-({[(3R)-3-fluoropyrrolidin-1-yl]sulfonyl}amino)benzoyl]-1H-pyrrolo[2,3-b]pyridin-5-yl}phenyl)piperidin-4-yl]methyl}-2,6-diazaspiro[3.3]heptan-2-yl)-N-[(3S)-2,6-dioxopiperidin-3-yl]-2-fluorobenzamide] | 5 to 50 | 35 to 70 | < 1 | 35 to 70 |
| O=C1CCC(NC(=O)c2ccc(N3CCC(CN4CC5(C4)CN(c4ccc(-c6cnc7[nH]cc(C(=O)c8c(F)ccc(NS(=O)(=O)N9CC[C@@H](F)C9)c8F)c7c6)cc4)C5)CC3)cn2)C(=O)N1 (stereo partly drawn) [Compound 354, 5-(4-{[6-(4-{3-[2,6-difluoro-3-({[(3R)-3-fluoropyrrolidin-1-yl]sulfonyl}amino)benzoyl]-1H-pyrrolo[2,3-b]pyridin-5-yl}phenyl)-2,6-diazaspiro[3.3]heptan-2-yl]methyl}piperidin-1-yl)-N-(2,6-dioxopiperidin-3-yl)pyridine-2-carboxamide] | 5 to 50 | < 35 | 1 to 10 | < 35 |
| O=C1CCC(N2Cc3cc(C4CCN(CCc5ccc(-c6cnc7[nH]cc(C(=O)c8c(F)ccc(NS(=O)(=O)N9CC[C@@H](F)C9)c8F)c7c6)cc5)[C@H](CO)C4)ccc3C2=O)C(=O)N1 (stereo partly drawn) [Compound 149, (3R)-N-{3-[5-(4-{2-[(2S)-4-[2-(2,6-dioxopiperidin-3-yl)-1-oxo-2,3-dihydro-1H-isoindol-5-yl]-2-(hydroxymethyl)piperidin-1-yl]ethyl}phenyl)-1H-pyrrolo[2,3-b]pyridine-3-carbonyl]-2,4-difluorophenyl}-3-fluoropyrrolidine-1-sulfonamide] | 50 to 500 | 35 to 70 | 1 to 10 | > 70 |
| O=C1CCC(N2Cc3cc(N4CC5(CC(CN6CCCc7cc(-c8cnc9[nH]cc(C(=O)c%10c(F)ccc(NS(=O)(=O)N%11CC[C@@H](F)C%11)c%10F)c9c8)ccc76)C5)C4)ccc3C2=O)C(=O)N1 (stereo partly drawn) [Compound 47, (3R)-N-(3-{5-[1-({2-[2-(2,6-dioxopiperidin-3-yl)-1-oxo-2,3-dihydro-1H-isoindol-5-yl]-2-azaspiro[3.3]heptan-6-yl}methyl)-1,2,3,4-tetrahydroquinolin-6-yl]-1H-pyrrolo[2,3-b]pyridine-3-carbonyl}-2,4-difluorophenyl)-3-fluoropyrrolidine-1-sulfonamide] | > 500 | – | 10 to 30 | 35 to 70 |
| CCCS(=O)(=O)Nc1ccc(F)c(C(=O)c2c[nH]c3ncc(-c4ccc(N5CCC(CN6CC7(C6)CN(c6ccc8c(c6)CN([C@@H]6CCC(=O)NC6=O)C8=O)C7)CC5)cc4)cc23)c1F [Compound 229, N-{3-[5-(4-{4-[(6-{2-[(3R)-2,6-dioxopiperidin-3-yl]-1-oxo-2,3-dihydro-1H-isoindol-5-yl}-2,6-diazaspiro[3.3]heptan-2-yl)methyl]piperidin-1-yl}phenyl)-1H-pyrrolo [2,3-b]pyridine-3-carbonyl]-2,4-difluorophenyl} propane-1-sulfonamide] | 5 to 50 | 35 to 70 | 1 to 10 | > 70 |
| O=C1CC[C@@H](N2Cc3cc(C[C@@H](O)CN4CCN(c5ccc(-c6cnc7[nH]cc(C(=O)c8c(F)ccc(NS(=O)(=O)N9CC[C@@H](F)C9)c8F)c7c6)cc5)CC4)ccc3C2=O)C(=O)N1 [Compound 73, (3R)-N-{3-[5-(4-{4-[(2R)-3-{2-[(3R)-2,6-dioxopiperidin-3-yl]-1-oxo-2,3-dihydro-1H-isoindol-5-yl}-2-hydroxypropyl]piperazin-1-yl}phenyl)-1H-pyrrolo[2,3-b]pyridine-3-carbonyl]-2,4-difluorophenyl}-3-fluoropyrrolidine-1-sulfonamide] | 5 to 50 | 35 to 70 | 1 to 10 | > 70 |
| O=C1CC[C@H](N2Cc3cc(N4CCC(CN5CCN(c6ccc(-c7cnc8[nH]cc(C(=O)c9c(F)ccc(NS(=O)(=O)N%10CC[C@@H](F)C%10)c9F)c8c7)cc6)CC5)CC4)ccc3C2=O)C(=O)N1 [Compound 223, (3R)-N-{3-[5-(4-{4-[(1-{2-[(3S)-2,6-dioxopiperidin-3-yl]-1-oxo-2,3-dihydro-1H-isoindol-5-yl}piperidin-4-yl)methyl]piperazin-1-yl}phenyl)-1H-pyrrolo [2,3-b]pyridine-3-carbonyl]-2,4-difluorophenyl}-3-fluoropyrrolidine-1-sulfonamide] | 5 to 50 | 35 to 70 | 1 to 10 | > 70 |
